The source of these data is ChEMBL document CHEMBL5108047 (J Med Chem, 2022).

The term IC50 denotes the midpoint of a concentration-inhibition curve. High values mean a need for much substance, low ones inhibition by little substance. A word on the AUC: it is concentration integrated over time. Lower therefore signals low exposure.

Data set [1] concerns the target T1, DNA polymerase theta (Homo sapiens, UniProt O75417). In words: Inhibition of human DNA polymerase theta pol domain (1819 to 2590 residues) expressed in Escherichia coli BL21 (DE3) cells preincubated for 15 mins followed by DNA and dNTP addition and measured after 120 mins by Picogreen dye fluorescence intensity analysis.
The conditions of data set [2]: mouse, microsomes.
Description: Metabolic stability in mouse liver microsomes assessed as clearance
The nature of data set [3]: AUC in CD-1 mouse at 20 mg/kg, po measured upto 24 hrs by reverse phase LCMS analysis. It counts as ADME, organism-based. The note with it: in vivo. Also on record: time < 24 hrs, dose 20 mg/kg, route po.
Data set [4] can be described thus: Plasma protein binding in mouse assessed as unbound fraction by equilibrium dailysis. It counts as ADME, cell-free.
Data set [5] is described as follows: fCaverage in CD-1 mouse. The data set is classed as ADME.
Data set [6] concerns the target T1, DNA polymerase theta. Description: Inhibition of human DNA polymerase theta using 5'-CACTGACTGTATGATG as primer and DNA 16/19 as substrate by FRET assay.
Data set [7] has as its target T1, DNA polymerase theta. In words: Inhibition of human DNA polymerase theta using DNA 16/19 as substrate at 5 nM of enzyme concentration.
Data set [8] has as its target T1, DNA polymerase theta. Description: Inhibition of human DNA polymerase theta using DNA 16/19 as substrate at 2 nM of enzyme concentration.
Data set [9] concerns the target T1, DNA polymerase theta. Description: Inhibition of human DNA polymerase theta using DNA 16/19 as substrate at 1 nM of enzyme concentration.
Data set [10] addresses T1, DNA polymerase theta. Description: Inhibition of human DNA polymerase theta using DNA 16/19 as substrate at 0.5 nM of enzyme concentration.

T1 sequence (O75417 whole entry, the tested form may be a part): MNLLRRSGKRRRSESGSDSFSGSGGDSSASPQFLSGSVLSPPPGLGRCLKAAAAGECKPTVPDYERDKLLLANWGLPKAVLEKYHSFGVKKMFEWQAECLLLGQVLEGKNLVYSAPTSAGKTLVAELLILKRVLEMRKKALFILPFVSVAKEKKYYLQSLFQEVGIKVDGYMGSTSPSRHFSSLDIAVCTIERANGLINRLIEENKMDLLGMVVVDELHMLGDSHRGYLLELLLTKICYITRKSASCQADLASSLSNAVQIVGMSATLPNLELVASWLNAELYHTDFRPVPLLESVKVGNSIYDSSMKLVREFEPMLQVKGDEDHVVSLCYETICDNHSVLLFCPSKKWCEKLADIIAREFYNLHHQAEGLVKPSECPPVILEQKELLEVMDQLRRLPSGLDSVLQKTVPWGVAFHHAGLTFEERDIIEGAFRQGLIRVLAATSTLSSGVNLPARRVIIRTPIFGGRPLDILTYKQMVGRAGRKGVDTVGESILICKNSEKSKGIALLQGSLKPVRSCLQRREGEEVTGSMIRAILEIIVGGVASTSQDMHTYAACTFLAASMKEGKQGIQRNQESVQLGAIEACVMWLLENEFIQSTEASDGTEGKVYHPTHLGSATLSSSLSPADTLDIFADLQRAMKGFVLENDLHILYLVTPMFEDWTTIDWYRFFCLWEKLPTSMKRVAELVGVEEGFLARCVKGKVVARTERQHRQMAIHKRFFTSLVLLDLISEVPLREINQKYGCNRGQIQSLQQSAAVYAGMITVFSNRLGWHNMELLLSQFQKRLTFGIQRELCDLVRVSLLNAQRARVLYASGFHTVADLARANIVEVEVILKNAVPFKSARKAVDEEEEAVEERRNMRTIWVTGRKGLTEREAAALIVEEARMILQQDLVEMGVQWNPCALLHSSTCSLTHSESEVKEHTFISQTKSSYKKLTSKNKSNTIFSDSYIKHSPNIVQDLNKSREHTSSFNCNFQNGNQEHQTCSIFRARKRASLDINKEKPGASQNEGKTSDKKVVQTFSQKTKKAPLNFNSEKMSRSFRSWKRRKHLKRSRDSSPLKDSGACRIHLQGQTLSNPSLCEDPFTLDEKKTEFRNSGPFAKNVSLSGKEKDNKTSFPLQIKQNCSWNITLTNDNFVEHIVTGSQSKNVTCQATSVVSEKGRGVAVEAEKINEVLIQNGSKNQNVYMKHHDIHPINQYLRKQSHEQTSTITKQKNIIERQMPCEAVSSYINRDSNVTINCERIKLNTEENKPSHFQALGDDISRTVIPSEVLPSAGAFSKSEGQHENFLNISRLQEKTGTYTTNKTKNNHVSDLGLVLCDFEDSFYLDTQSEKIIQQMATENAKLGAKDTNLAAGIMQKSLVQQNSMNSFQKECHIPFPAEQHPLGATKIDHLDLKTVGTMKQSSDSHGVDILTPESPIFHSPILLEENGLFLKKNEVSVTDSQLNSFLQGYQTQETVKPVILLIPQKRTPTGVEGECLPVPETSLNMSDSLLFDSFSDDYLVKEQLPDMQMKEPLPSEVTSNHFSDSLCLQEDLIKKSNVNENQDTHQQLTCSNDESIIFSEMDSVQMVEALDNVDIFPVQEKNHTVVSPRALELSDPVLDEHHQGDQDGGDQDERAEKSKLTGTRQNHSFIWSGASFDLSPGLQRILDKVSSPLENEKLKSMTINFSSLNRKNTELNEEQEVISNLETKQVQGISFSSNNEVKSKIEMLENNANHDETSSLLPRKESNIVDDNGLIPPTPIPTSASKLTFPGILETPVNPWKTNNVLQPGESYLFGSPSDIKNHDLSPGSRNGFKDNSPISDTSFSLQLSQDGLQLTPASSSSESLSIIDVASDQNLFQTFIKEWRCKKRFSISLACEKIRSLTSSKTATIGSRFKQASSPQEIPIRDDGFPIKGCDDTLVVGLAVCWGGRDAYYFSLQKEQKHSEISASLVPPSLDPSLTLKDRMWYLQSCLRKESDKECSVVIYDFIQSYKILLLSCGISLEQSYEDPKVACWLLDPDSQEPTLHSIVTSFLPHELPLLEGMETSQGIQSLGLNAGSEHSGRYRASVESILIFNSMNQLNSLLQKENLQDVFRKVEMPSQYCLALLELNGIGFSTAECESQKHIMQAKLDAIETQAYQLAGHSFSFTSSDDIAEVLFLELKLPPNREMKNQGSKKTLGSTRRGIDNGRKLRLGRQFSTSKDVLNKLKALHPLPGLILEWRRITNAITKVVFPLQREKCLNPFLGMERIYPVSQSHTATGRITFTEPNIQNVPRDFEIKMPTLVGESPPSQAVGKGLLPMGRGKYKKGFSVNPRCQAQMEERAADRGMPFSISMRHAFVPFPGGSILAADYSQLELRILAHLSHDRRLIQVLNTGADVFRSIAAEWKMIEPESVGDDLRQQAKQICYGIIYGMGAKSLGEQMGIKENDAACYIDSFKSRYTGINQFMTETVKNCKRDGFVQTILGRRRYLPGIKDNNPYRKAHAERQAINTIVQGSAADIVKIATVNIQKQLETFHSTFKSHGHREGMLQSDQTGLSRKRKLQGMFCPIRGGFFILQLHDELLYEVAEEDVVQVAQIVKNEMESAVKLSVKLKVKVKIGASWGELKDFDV

For the compound `CN(C(=O)Cn1nc2c(c1C(F)(F)F)CC(C)(C)C2)c1ccccc1`, it took 560 nM to reach half-maximal inhibition at DNA polymerase theta [1] (IC50). The CLH in data set [2] is greater than 555 µL/min/mg.
With `CC(=O)NCC#CCN(C(=O)Cc1ccc(C(F)(F)F)cc1C(F)(F)F)c1ccccc1`, half-maximal inhibition on DNA polymerase theta [1] (IC50) was put at 0.82 nM. For the same compound, in [2], the CLH is greater than 832 µL/min/mg.
The matching figures for `CN(C(=O)Cn1nc2c(c1C(F)(F)F)CS(=O)(=O)C2)c1ccccc1`: 43000 nM and 23 µL/min/mg.
On to `O=C(Cc1ccc(C(F)(F)F)cc1C(F)(F)F)N(CC#Cc1cccnc1)c1ccccc1`, for which half-maximal inhibition at DNA polymerase theta [1] (IC50) was put at 2.5 nM. Also, in data set [2], the CLH turned out to be 110 µL/min/mg.
At DNA polymerase theta [1], `Cn1nc(N)cc1C#CCN(C(=O)Cc1ncc(C(F)(F)F)cc1C(F)(F)F)c1ccc(F)cc1` gave an IC50 of 1.7 nM. For the same compound, the AUC in data set [3] was 35.6 µM·h. Besides, in data set [4], the Fu was 0.044. The “f(Cave)” value in data set [5] worked out at 65 nM.
As for `O=C(Cc1ncc(C(F)(F)F)cc1C(F)(F)F)N(CC#Cc1ccc(C2CCNC2)cn1)c1ccc(F)cc1` (configuration not stated), on DNA polymerase theta [1], the IC50 was found to be 0.72 nM. The compound further came in with an AUC in data set [3] of 38 µM·h. In addition, the Fu in [4] is 0.019. For the same compound, the “f(Cave)” value in data set [5] amounted to 30 nM.
With `O=C(NCC#CCN(C(=O)Cc1ccc(C(F)(F)F)cc1C(F)(F)F)c1ccccc1)c1cccnc1`, the midpoint of inhibition at DNA polymerase theta [1], the IC50, lay at 0.2 nM. The compound also showed a CLH in data set [2] of 492 µL/min/mg.
As to `CC1CCc2nn(CC(=O)N(C)c3ccccc3)c(C(F)(F)F)c21` (configuration not stated), the midpoint of inhibition on DNA polymerase theta [1], the IC50, lay at 240 nM. This compound came in with a CLH in [2] greater than 555 µL/min/mg.
Compound `CN(C(=O)Cn1nc2c(c1C(F)(F)F)CNCC2)c1ccccc1` came in with an IC50 on DNA polymerase theta [1] greater than 100000 nM. The compound further had a CLH in [2] of 16 µL/min/mg.
`C#CCN(C(=O)Cc1ccc(C(F)(F)F)cc1C(F)(F)F)c1ccccc1`: the IC50 at DNA polymerase theta [1] stood at 14 nM. This compound displayed a CLH in data set [2] of 597 µL/min/mg.
For the compound `CN(C(=O)Cc1ccc(C2CC2)cc1C(F)(F)F)c1ccccc1`, the IC50 against DNA polymerase theta [1] is 40 nM.
With `CN(C(=O)Cn1nc(C(F)(F)F)c2c1CCCC2)c1ccccc1`, at DNA polymerase theta [1], 11000 nM corresponded to half-maximal inhibition (IC50).
At DNA polymerase theta [1], `CN(C(=O)Cn1nc2c(c1C(F)(F)F)CCC2(C)C)c1ccccc1` came in with an IC50 of 2300 nM. In data set [2], this compound showed a CLH greater than 832 µL/min/mg.
`Nc1ncc(C#CCN(C(=O)Cc2ncc(C(F)(F)F)cc2C(F)(F)F)c2ccc(F)cc2)cn1` returned an IC50 against DNA polymerase theta [1] of 1.6 nM. The AUC in data set [3] came to 24.7 µM·h. Besides, the Fu in [4] was determined as 0.015. The “f(Cave)” value in data set [5] was found to be 81 nM.
On DNA polymerase theta [1], `CN(C(=O)Cn1nc2c(c1C(F)(F)F)C(O)CC2)c1ccccc1` (configuration not stated) came in with a concentration for half-maximal inhibition (IC50) greater than 100000 nM. Besides, the CLH in [2] is 46 µL/min/mg.
`CN(C(=O)Cc1ncc(C(F)(F)F)cc1C(F)(F)F)c1ccccc1` displayed an IC50 against DNA polymerase theta [1] of 65 nM.
`[2H]C([2H])([2H])N(C(=O)Cc1ccc(C(F)(F)F)cc1C(F)(F)F)c1ccc(F)cc1` came in with an IC50 against DNA polymerase theta [1] of 19 nM. Further, the CLH in [2] is 52 µL/min/mg.
In [2], `CN(C(=O)Cn1nc2c(c1C(F)(F)F)CCCC2)c1ccccc1` gave a CLH greater than 555 µL/min/mg.
Compound `CN(C(=O)Cc1ccc(C(F)(F)F)cc1C(F)(F)F)c1ccc(F)cc1` came in with an IC50 against DNA polymerase theta [1] of 17 nM. The CLH in data set [2] turned out to be 125 µL/min/mg.
On DNA polymerase theta [1], `Cn1cncc1C#CCN(C(=O)Cc1ccc(C(F)(F)F)cc1C(F)(F)F)c1ccccc1` showed an IC50 of 1.2 nM. Moreover, in data set [2], the CLH worked out at 57 µL/min/mg.
Consider `CN(C(=O)Cn1nc2c(c1C(F)(F)F)C(=O)NCC2)c1ccccc1`, for which the IC50 against DNA polymerase theta [1] is greater than 100000 nM. Moreover, in data set [2], the CLH worked out at 18 µL/min/mg.
`CC1Cc2nn(CC(=O)N(C)c3ccccc3)c(C(F)(F)F)c2C1` (configuration not stated) registered an IC50 against DNA polymerase theta [1] of 950 nM. Moreover, in data set [2], the CLH was greater than 832 µL/min/mg.
As to `Cc1c2c(nn1CC(=O)N(C)c1ccccc1)CCC2`, the IC50 against DNA polymerase theta [1] turned out to be 10000 nM. In addition, the CLH in data set [2] amounted to 473 µL/min/mg.
In turn, `CN(C(=O)Cn1nc2c(c1C(F)(F)F)CCC2)c1ccccc1` displayed an IC50 at DNA polymerase theta [1] of 710 nM. Also, the CLH in data set [2] was greater than 555 µL/min/mg.
Regarding `CN(C(=O)Cc1ccc(C(F)(F)F)cc1C(F)(F)F)c1ccccn1`, the midpoint of inhibition against DNA polymerase theta [1], the IC50, lay at 2700 nM. The same compound returned a CLH in [2] greater than 832 µL/min/mg.
Take `O=C(Cc1ccc(C(F)(F)F)cc1C(F)(F)F)N(CC#Cc1ncccn1)c1ccccc1`: inhibition against DNA polymerase theta [1] was half-maximal at 3.9 nM (IC50). This compound also registered a CLH in [2] of 105 µL/min/mg.
With `CS(=O)(=O)Cn1cc(C#CCN(C(=O)Cc2ncc(C(F)(F)F)cc2C(F)(F)F)c2ccc(F)cc2)cn1`, the IC50 against DNA polymerase theta [1] came out at 0.91 nM. Further, the AUC in data set [3] was 76.3 µM·h. Further, the Fu in data set [4] was 0.019. Also, the “f(Cave)” value in data set [5] came out at 60 nM.
On DNA polymerase theta [1], `O=C(Cc1ccc(C(F)(F)F)cc1C(F)(F)F)N(CC#Cc1ccccn1)c1ccccc1` displayed an IC50 of 2.9 nM. In addition, the CLH in data set [2] was found to be 64 µL/min/mg.
`CN(C(=O)Cc1ccccc1C(F)(F)F)c1ccccc1` displayed an IC50 against DNA polymerase theta [1] of 9200 nM.
For `CN(C(=S)Cn1nc2c(c1C(F)(F)F)CCC2)c1ccccc1`, the IC50 against DNA polymerase theta [1] worked out at 17 nM; at DNA polymerase theta [6], 10 nM; on DNA polymerase theta [7], 11.1 nM; against DNA polymerase theta [8], 8.71 nM; against DNA polymerase theta [9], 7.49 nM; against DNA polymerase theta [10] it was 8.48 nM. In [2], the CLH was greater than 555 µL/min/mg.
In turn, `CC(C(N)=O)n1cc(C#CCN(C(=O)Cc2ncc(C(F)(F)F)cc2C(F)(F)F)c2ccc(F)cc2)cn1` (configuration not stated) displayed an IC50 against DNA polymerase theta [1] of 0.99 nM. Moreover, the AUC in data set [3] worked out at 27 µM·h. For the same compound, the Fu in [4] was found to be 0.044. In addition, the “f(Cave)” value in data set [5] turned out to be 49 nM.
At DNA polymerase theta [1], `O=C(Cc1ncc(C(F)(F)F)cc1C(F)(F)F)N(CC#Cc1cnn(C2CNC2)c1)c1ccc(F)cc1` returned an IC50 of 0.75 nM. The same compound showed an AUC in data set [3] of 14.1 µM·h. Also, in data set [4], the Fu came out at 0.051. Moreover, the “f(Cave)” value in data set [5] amounted to 29 nM.
At DNA polymerase theta [1], `O=C(Cc1ccc(C(F)(F)F)cc1C(F)(F)F)N(CC#Cc1cccc(=O)[nH]1)c1ccccc1` came in with an IC50 of 0.51 nM. This compound also returned a CLH in [2] of 39 µL/min/mg.
In turn, `CN(C(=O)Cn1nc2c(c1C(F)(F)F)C(C)(C)CC2)c1ccccc1` came in with an IC50 on DNA polymerase theta [1] of 520 nM. For the same compound, in data set [2], the CLH was greater than 555 µL/min/mg.
On DNA polymerase theta [1], `Cn1cnc(C#CCN(C(=O)Cc2ncc(C(F)(F)F)cc2C(F)(F)F)c2ccc(F)cc2)c1` displayed an IC50 of 9 nM. The same compound came in with an AUC in data set [3] of 5.31 µM·h. The Fu in data set [4] is listed as 0.018. Also, the “f(Cave)” value in [5] amounted to 3 nM.
The compound `COc1ncc(C#CCN(C(=O)Cc2ncc(C(F)(F)F)cc2C(F)(F)F)c2ccc(F)cc2)cn1` yielded an IC50 on DNA polymerase theta [1] of 2.1 nM. In addition, the AUC in [3] worked out at 7 µM·h. Besides, the Fu in data set [4] came to 0.013. Further, the “f(Cave)” value in [5] amounted to 3 nM.
`CN(C(=O)Cc1ccc(Cl)cc1C(F)(F)F)c1ccccc1` yielded an IC50 against DNA polymerase theta [1] of 121 nM.
Take `CN(C(=O)Cc1ccc(C(F)(F)F)cc1C(F)(F)F)c1cccnc1`: at DNA polymerase theta [1], inhibition was half-maximal at 3200 nM (IC50). In data set [2], this compound displayed a CLH of 216 µL/min/mg.
Take `COc1ccc(C#CCN(C(=O)Cc2ncc(C(F)(F)F)cc2C(F)(F)F)c2ccc(F)cc2)nn1`: half-maximal inhibition on DNA polymerase theta [1] (IC50) was put at 4.9 nM. In data set [3], this compound gave an AUC of 27.7 µM·h. Besides, in [5], the “f(Cave)” value was found to be 6 nM.
On to `Cc1nnc(C(=O)NCC#CCN(C(=O)Cc2ccc(C(F)(F)F)cc2C(F)(F)F)c2ccccc2)o1`, for which, at DNA polymerase theta [1], the IC50 was determined as 0.068 nM. The compound also had a CLH in data set [2] of 614 µL/min/mg.
The matching figures for `CN(C(=O)Cc1ccc(C(F)(F)F)cc1C(F)(F)F)c1ccncc1`: 2200 nM and 56 µL/min/mg.
The compound `O=C(NCC#CCN(C(=O)Cc1ccc(C(F)(F)F)cc1C(F)(F)F)c1ccccc1)c1ccccn1` displayed an IC50 against DNA polymerase theta [1] of 0.4 nM. Besides, the CLH in [2] was 469 µL/min/mg.
`Nc1cnc(C#CCN(C(=O)Cc2ncc(C(F)(F)F)cc2C(F)(F)F)c2ccc(F)cc2)cn1` displayed an IC50 against DNA polymerase theta [1] of 4.2 nM. The same compound returned an AUC in [3] of 108 µM·h. Also, the Fu in [4] turned out to be 0.018. In addition, the “f(Cave)” value in [5] stood at 81 nM.
On to `N#CCN(C(=O)Cc1ccc(C(F)(F)F)cc1C(F)(F)F)c1ccccc1`, for which inhibition on DNA polymerase theta [1] was half-maximal at 42 nM (IC50). In addition, the CLH in [2] came to 115 µL/min/mg.
On DNA polymerase theta [1], `CN(C(=O)Cn1c(C(F)(F)F)cc(C(F)(F)F)cc1=O)c1ccccc1` returned an IC50 of 58 nM.
